Reference: patent publication US20080318954A1, “Compounds” (Cyclacel Limited, priority 2004, published 2008)

Tests used:
CDK2/cyclin A = target: T1, CDK2/cyclin A (Homo sapiens, UniProt P24941); experiment: CDK/cyclin kinase assay, CDK2/cyclin A; type: biochemical; conditions: for inhibition at 1 µM: primary screening at 1 μM; for IC50: read-out: Kinase inhibition IC50 CDK2/A
T1 construct: His6 (N); made in house; host or cells: Sf9 insect cells (baculovirus)
Procedure: (§1) CDK4/cyclin D1, CDK1/cyclin B, CDK2/cyclin E, CDK2/cyclin A, CDK9/cyclin T1 and CDK7/cyclin H, all with a His6 tag on the N-terminus, were expressed in Sf9 insect cells using an appropriate baculovirus construct. Sf9 culture (1.6×10^6 cells/mL) was infected (MOI of 3) for two days. The cells were harvested by low speed centrifugation and the protein was purified from the insect cell pellet by metal affinity chromatography. In short: the insect cell pellet was lysed in Buffer A (10 mM Tris-HCl pH 8.0, 150 mM NaCl, 0.02% NP-40, 5 mM β-mercaptoethanol, 20 mM NaF, 1 mM Na3VO4, and Sigma Protease Inhibitor Cocktail) by sonication. The soluble fraction was cleared by centrifugation and loaded onto Ni-NTA-Agarose (Qiagen). Non-bound protein was washed off with 300 mM NaCl, 5-15 mM imidazole in buffer A and the bound protein was eluted with buffer A supplemented with 250 mM imidazole. The purified proteins were extensively dialyzed against storage buffer (20 mM HEPES pH 7.4, 50 mM NaCl, 2 mM DTT, 1 mM EDTA, 1 mM EGTA, 0.02% NP-40, 10% v/v glycerol) and stored at −70° C.
(§2) Compounds were investigated for their CDK2/cyclin E, CDK2/cyclin A, CDK1/cyclin B, and CDK4/cyclin D1 inhibitory activity. His6-tagged recombinant human cyclin-dependent kinases CDK1/cyclin B1, CDK2/cyclin E, CDK2/cyclin A, and CDK4 were expressed in sf9 insect cells using a baculovirus expression system. Recombinant cyclin D1 was expressed in E. coli. Proteins were purified by metal chelate affinity chromatography to greater than 90% homogeneity. Kinase assays were performed in 96-well plates using recombinant CDK/cyclins. Assays were performed in assay buffer (25 mM β-glycerophosphate, 20 mM MOPS, 5 mM EGTA, 1 mM DTT, 1 mM […], pH 7.4), into which were added 2-4 μg of active enzyme with appropriate substrates (purified histone H1 for CDK1 and CDK2, recombinant GST-retinoblastoma protein (residues 773-928) for CDK4). The reaction was initiated by addition of Mg/ATP mix (15 mM MgCl2+100 μM ATP with 30-50 kBq per well of [γ-^32P]-ATP) and mixtures incubated for 10-45 min, as required, at 30° C. Reactions were stopped on ice, followed by filtration through p81 or GF/C filterplates (for CDK4) (Whatman Polyfiltronics, Kent, UK). After washing 3 times with 75 mM aq orthophosphoric acid, plates were dried, scintillant added and incorporated radioactivity measured in a scintillation counter (TopCount, Packard Instruments, Pangbourne, Berks, UK). Compounds for kinase assays were made up as 10 mM stocks in DMSO and diluted into 10% DMSO in assay buffer. Data was analysed using curve-fitting software (GraphPad Prism version 3.00 for Windows, GraphPad Software, San Diego Calif. USA) to determine IC50 values (concentration of test compound which inhibits kinase activity by 50%).

CDK4/cyclin D1 = target: T2, CDK4/cyclin D1 (Homo sapiens, UniProt P11802); experiment: CDK/cyclin kinase assay, CDK4/cyclin D1; type: biochemical; conditions: for inhibition at 1 µM: primary screening at 1 μM; for IC50: read-out: Kinase inhibition IC50 CDK4/D1
T2 construct: His6 (N); made in house; host or cells: CDK4: Sf9 insect cells (baculovirus); Cyclin D1: E. coli, Sf9
Procedure: as §1, §2

CDK2/cyclin E = target: T3, CDK2/cyclin E (Homo sapiens, UniProt P24941); experiment: CDK/cyclin kinase assay, CDK2/cyclin E; type: biochemical; conditions: for inhibition at 1 µM: primary screening at 1 μM; for IC50: read-out: Kinase inhibition IC50 CDK2/E
T3 construct: His6 (N); made in house; host or cells: Sf9 insect cells (baculovirus)
Procedure: as §1, §2

GSK-3β = target: T4, GSK-3β (Oryctolagus cuniculus, UniProt G1T8E2); experiment: GSK-3β kinase assay; type: biochemical, rabbit; conditions: read-out: Kinase inhibition IC50 GSK3β
T4 construct: isolated from a strain of E. coli that carries a clone expressing GSK-3β derived from a rabbit skeletal muscle cDNA library [34]
Procedure: GSK-3 was obtained from New England Biolabs (UK) Ltd., Hitchin, Herts. The recombinant enzyme was isolated from a strain of E. coli that carries a clone expressing GSK-3β derived from a rabbit skeletal muscle cDNA library. Inhibition of GSK-3 function was assessed by measurement of phosphorylation of CREB phosphopeptide KRREILSRRPpSYR in the presence of test compounds. Using a 96-well assay format, GSK3 (7.5 U) was incubated for 30 min at 30° C. in a total volume of 25 μL in 20 mM MOPS pH 7.2, 25 mM β-glycerophosphate, 5 mM EGTA, 1 mM DTT, 1 mM […], 40 μM CREB peptide, 15 mM MgCl2 and 100 μM ATP (containing 0.25 μCi [γ-^32P]-ATP) in the presence of varying concentrations of test compound. The samples were transferred to 96-well p81 filter plates (Whatman Polyfiltronics, Kent, UK), and the plates were washed 4 times with 200 μL/well of 75 mM aq orthophosphoric acid. Scintillation liquid (50 μL) was added to each well, and incorporated radioactivity for each sample was determined using a scintillation counter (TopCount, Packard Instruments, Pangbourne, Berks, UK).

CDK1/cyclin B1 = target: T5, CDK1/cyclin B1 (Homo sapiens, UniProt P06493); experiment: CDK/cyclin kinase assay, CDK1/cyclin B1; type: biochemical; conditions: for inhibition at 1 µM: primary screening at 1 μM; for IC50: read-out: Kinase inhibition IC50 CDK1/B1
T5 construct: His6 (N); made in house; host or cells: Sf9 insect cells (baculovirus)
Procedure: as §1, §2

[1] = test system: glycogen synthase activity in HEK293 cells; experiment: Glycogen synthase (GS) assay in HEK293 cells; type: cell-based, human; conditions: Homo sapiens; In HEK293 cells at [compound] = 5 μM (Table 2)
Procedure: Cells on 10 cm dishes (Human Embryonic Kidney (HEK) 293 cells, L6 rat myocytes, or 3T3 mouse adipocytes) were treated with different concentrations of GSK3-inhibitors or DMSO vehicle for 90 min. Incubation medium was removed and cells were washed with ice-cold phosphate-buffered saline (PBS) prior to lysis on ice in 50 mM HEPES, pH 7.5, 10 mM EDTA, 100 mM NaF, 5 mM DTT, protease inhibitor cocktail (Sigma). After a freeze/thaw cycle the samples are sonicated for 10 sec and centrifuged at 15,000 g for 10 min at 4° C. Lysate supernatants were snap-frozen on liquid nitrogen and stored at −80° C. Lysates were assayed for glycogen synthase activity in buffer (50 mM Tris-HCl, pH 7.8, 20 mM EDTA, 25 mM NaF, 5 mM DTT, 1% glycogen, 0.3 mM UDP-glucose and 0.06 μCi of [^14C]-UDP-glucose in the presence of 0.1 or 10 mM glucose-6-phosphate. The reaction was carried out for 30 min at 30° C. 70 μL of the reaction mixture (total volume 90 μL) were transferred to a GFC 96-well filter plate (bottom sealed with foil), containing 140 μL 96% ethanol. The GFC plate was incubated for 1 h on ice and than washed with 66% ethanol. To each well 100 μL scintillant liquid was added and the radioactivity of the samples was measured using a scintillation counter (Topcount, HP). Data are expressed as -fold increase in glycogen synthase activity ratios over those of control samples.

T5 sequence (P06493 whole entry): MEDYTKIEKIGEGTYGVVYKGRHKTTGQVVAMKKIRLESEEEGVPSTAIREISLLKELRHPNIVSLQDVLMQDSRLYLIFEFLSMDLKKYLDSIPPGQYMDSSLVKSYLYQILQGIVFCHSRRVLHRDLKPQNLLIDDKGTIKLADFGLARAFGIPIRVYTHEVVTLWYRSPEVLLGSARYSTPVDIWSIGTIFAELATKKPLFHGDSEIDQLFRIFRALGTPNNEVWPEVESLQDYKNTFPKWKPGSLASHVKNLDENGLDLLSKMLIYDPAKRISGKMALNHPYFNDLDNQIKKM
T5 sequence (P14635 whole entry partner): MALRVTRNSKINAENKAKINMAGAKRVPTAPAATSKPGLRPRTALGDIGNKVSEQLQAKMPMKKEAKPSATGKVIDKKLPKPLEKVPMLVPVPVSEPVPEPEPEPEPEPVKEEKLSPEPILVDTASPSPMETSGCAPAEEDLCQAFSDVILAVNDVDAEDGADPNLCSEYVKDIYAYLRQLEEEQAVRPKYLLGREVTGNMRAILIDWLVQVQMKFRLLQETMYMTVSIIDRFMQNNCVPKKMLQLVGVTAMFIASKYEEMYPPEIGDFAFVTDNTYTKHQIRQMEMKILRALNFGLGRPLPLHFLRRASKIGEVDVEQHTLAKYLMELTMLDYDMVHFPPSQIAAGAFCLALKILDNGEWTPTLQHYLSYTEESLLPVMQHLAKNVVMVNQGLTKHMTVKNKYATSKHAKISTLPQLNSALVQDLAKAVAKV
T2 sequence (P11802 whole entry): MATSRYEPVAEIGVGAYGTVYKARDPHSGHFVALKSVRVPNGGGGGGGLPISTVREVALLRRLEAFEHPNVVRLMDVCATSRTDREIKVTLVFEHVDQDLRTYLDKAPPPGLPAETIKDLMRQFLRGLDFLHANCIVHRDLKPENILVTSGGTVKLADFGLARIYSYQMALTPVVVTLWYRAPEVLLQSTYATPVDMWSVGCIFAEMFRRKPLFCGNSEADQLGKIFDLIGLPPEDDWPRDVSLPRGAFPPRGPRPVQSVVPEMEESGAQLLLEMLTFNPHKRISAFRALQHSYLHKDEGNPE
T2 sequence (P24385 whole entry partner): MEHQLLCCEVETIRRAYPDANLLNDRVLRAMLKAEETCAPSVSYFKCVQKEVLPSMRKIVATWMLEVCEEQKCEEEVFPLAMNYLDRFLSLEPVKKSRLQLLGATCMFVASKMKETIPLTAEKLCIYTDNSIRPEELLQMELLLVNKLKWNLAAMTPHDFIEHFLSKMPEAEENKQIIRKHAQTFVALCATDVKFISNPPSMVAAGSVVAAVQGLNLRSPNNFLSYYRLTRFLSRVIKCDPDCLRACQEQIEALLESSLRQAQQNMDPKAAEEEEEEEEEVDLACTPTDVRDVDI
T4 sequence (G1T8E2 1-432): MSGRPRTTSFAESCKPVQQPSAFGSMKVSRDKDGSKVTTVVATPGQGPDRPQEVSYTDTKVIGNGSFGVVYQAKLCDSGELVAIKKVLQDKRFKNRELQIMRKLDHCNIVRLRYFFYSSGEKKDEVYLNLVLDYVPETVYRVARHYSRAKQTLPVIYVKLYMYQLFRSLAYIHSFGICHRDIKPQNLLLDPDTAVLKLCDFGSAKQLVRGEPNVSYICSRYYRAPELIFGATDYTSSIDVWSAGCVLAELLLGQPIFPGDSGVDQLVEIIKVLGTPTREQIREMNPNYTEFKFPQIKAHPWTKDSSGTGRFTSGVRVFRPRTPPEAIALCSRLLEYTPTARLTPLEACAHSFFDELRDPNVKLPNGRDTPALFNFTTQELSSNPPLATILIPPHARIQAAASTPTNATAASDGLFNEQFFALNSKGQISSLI

Cc1nc(-c2ccnc(Nc3cccc(C(F)(F)F)c3)n2)sc1C [Compound X, [4-(4,5-Dimethyl-thiazol-2-yl)-pyrimidin-2-yl]-(3-trifluoromethyl-phenyl)-amine]
inhibition at 1 µM (CDK2/cyclin A): < 50% | inhibition at 1 µM (CDK4/cyclin D1): < 50% | inhibition at 1 µM (CDK2/cyclin E): < 50% | IC50 (GSK-3β): 12.2 µM | inhibition at 1 µM (CDK1/cyclin B1): < 50%

Cc1nc(-c2ccnc(Nc3ccc(Cl)c(C(F)(F)F)c3)n2)sc1C [Compound XI, (4-Chloro-3-trifluoromethyl-phenyl)-[4-(4,5-dimethyl-thiazol-2-yl)-pyrimidin-2-yl]-amine]
inhibition at 1 µM (CDK2/cyclin A): < 50% | inhibition at 1 µM (CDK4/cyclin D1): < 50% | inhibition at 1 µM (CDK2/cyclin E): < 50% | IC50 (GSK-3β): 15.6 µM | inhibition at 1 µM (CDK1/cyclin B1): < 50%

Cc1nc(-c2ccnc(Nc3cccc(O)c3)n2)sc1C [IX, 3-[4-(4,5-Dimethyl-thiazol-2-yl)-pyrimidin-2-ylamino]-phenol]
inhibition at 1 µM (CDK2/cyclin A): < 50% | inhibition at 1 µM (CDK4/cyclin D1): < 50% | inhibition at 1 µM (CDK2/cyclin E): < 50% | IC50 (GSK-3β): 1.53 µM | inhibition at 1 µM (CDK1/cyclin B1): < 50%

CCOC(=O)c1sc(-c2ccnc(Nc3ccc(Cl)cc3)n2)nc1O [VII, 2-[2-(4-Chloro-phenylamino)-pyrimidin-4-yl]-4-hydroxy-thiazole-5-carboxylic acid ethyl ester]
IC50 (CDK2/cyclin A): > 10 µM | IC50 (CDK4/cyclin D1): > 10 µM | IC50 (CDK2/cyclin E): > 1 µM | IC50 (GSK-3β): 0.135 µM | IC50 (CDK1/cyclin B1): > 10 µM | fold induction at 5 µM [1]: 2.3

Cc1nc(-c2ccnc(Nc3cccc(N)c3)n2)sc1C [VIII, N-[4-(4,5-Dimethyl-thiazol-2-yl)-pyrimidin-2-yl]-benzene-1,3-diamine]
inhibition at 1 µM (CDK2/cyclin A): < 50% | inhibition at 1 µM (CDK4/cyclin D1): < 50% | inhibition at 1 µM (CDK2/cyclin E): < 50% | IC50 (GSK-3β): 3.47 µM | inhibition at 1 µM (CDK1/cyclin B1): < 50%

COc1ccc(Nc2nccc(-c3nccs3)n2)cn1 [XIII, (6-Methoxy-pyridin-3-yl)-(4-thiazol-2-yl-pyrimidin-2-yl)-amine]
IC50 (CDK2/cyclin A): > 100 µM | IC50 (CDK4/cyclin D1): > 100 µM | IC50 (CDK2/cyclin E): > 50 µM | IC50 (GSK-3β): 0.91 µM | IC50 (CDK1/cyclin B1): > 100 µM | fold induction at 5 µM [1]: 1.5

COc1ccc(Nc2nccc(-c3nc(C)c(C)s3)n2)cn1 [XVI, [4-(4,5-Dimethyl-thiazol-2-yl)-pyrimidin-2-yl]-(6-methoxy-pyridin-3-yl)-amine]
IC50 (CDK2/cyclin A): > 10 µM | IC50 (CDK4/cyclin D1): > 10 µM | IC50 (CDK2/cyclin E): > 1 µM | IC50 (GSK-3β): 5.45 µM | IC50 (CDK1/cyclin B1): > 10 µM

Cc1nc(-c2ccnc(Nc3ccc(Cl)nc3)n2)sc1C [XVII, (6-Chloro-pyridin-3-yl)-[4-(4,5-dimethyl-thiazol-2-yl)-pyrimidin-2-yl]-amine]
IC50 (CDK2/cyclin A): > 10 µM | IC50 (CDK4/cyclin D1): > 10 µM | IC50 (CDK2/cyclin E): > 10 µM | IC50 (GSK-3β): 2.91 µM | IC50 (CDK1/cyclin B1): > 10 µM

Cc1sc(-c2ccnc(Nc3ccc(Cl)cc3)c2)nc1O [XXII, 2-[2-(4-Chloro-phenylamino)-pyridin-4-yl]-5-methyl-thiazol-4-ol]
inhibition at 1 µM (CDK2/cyclin A): < 50% | inhibition at 1 µM (CDK4/cyclin D1): < 50% | inhibition at 1 µM (CDK2/cyclin E): < 50% | IC50 (GSK-3β): 0.47 µM | inhibition at 1 µM (CDK1/cyclin B1): < 50% | fold induction at 5 µM [1]: 1.5 ± 0.4

c1cc(-c2nccs2)nc(Nc2ccc(N3CCCC3)nc2)n1 [XXIII, (6-Pyrrolidin-1-yl-pyridin-3-yl)-(4-thiazol-2-yl-pyrimidin-2-yl)-amine]
inhibition at 1 µM (CDK2/cyclin A): < 50% | inhibition at 1 µM (CDK4/cyclin D1): < 50% | inhibition at 1 µM (CDK2/cyclin E): < 50% | IC50 (GSK-3β): 0.482 µM | inhibition at 1 µM (CDK1/cyclin B1): < 50% | fold induction at 5 µM [1]: 1.35 ± 0.07

Cc1sc(-c2ccnc(Nc3ccc(Cl)nc3)n2)nc1O [XXV, 2-[2-(6-Chloro-pyridin-3-ylamino)-pyrimidin-4-yl]-5-methyl-thiazol-4-ol]
inhibition at 1 µM (CDK2/cyclin A): < 50% | inhibition at 1 µM (CDK2/cyclin E): < 50% | IC50 (GSK-3β): 0.08 µM | inhibition at 1 µM (CDK1/cyclin B1): < 50% | fold induction at 5 µM [1]: 2.1 ± 0.3

Cc1cc(Nc2nccc(-c3nccs3)n2)cnc1Cl [XXVII, (6-Chloro-5-methyl-pyridin-3-yl)-(4-thiazol-2-yl-pyrimidin-2-yl)-amine]
inhibition at 1 µM (CDK2/cyclin E): < 50% | IC50 (GSK-3β): 0.09 µM | fold induction at 5 µM [1]: 1.5 ± 0.4
